Experiments:
Test in all cases: SILAC LC-MS ABPP
Format in all cases: cell-based
Details in all cases: 25 μM 2 h, live DM93 cells
[1] = target: T1, P09874 (Homo sapiens, UniProt P09874)
T1 construct: endogenous in cells; host or cells: DM93 cells (SILAC)
Outline: (§1)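 DM93 SILAC cells, ligand 25 μM vs DMSO, 2 h; HHS-475 100 μM, 2 h; CuAAC desthiobiotin tag; 1:1 pool; trypsin; avidin enrichment; LC-MS/MS site quantification.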

[2] = target: T2, P68104 (Homo sapiens, UniProt P68104)
T2 construct: performing SuTEx compound screening directly in cells; endogenous in cells; host or cells: DM93 cells (SILAC)
Outline: as §1

[3] = target: T3, P68371 (Homo sapiens, UniProt P68371)
T3 construct: performing SuTEx compound screening directly in cells; endogenous in cells; host or cells: DM93 cells (SILAC)
Outline: as §1

[4] = target: T4, O43390 (Homo sapiens, UniProt O43390)
T4 construct: endogenous in cells; host or cells: DM93
Outline: as §1

[5] = target: T5, P61326 (Homo sapiens, UniProt P61326)
T5 construct: performing SuTEx compound screening directly in cells; endogenous in cells; host or cells: DM93 cells (SILAC)
Outline: as §1

[6] = target: T6, Q6ZSZ5 (Homo sapiens, UniProt Q6ZSZ5)
T6 construct: endogenous in cells; host or cells: DM93 cells (SILAC), live-cell treatment
Outline: as §1

[7] = target: T7, Q9UPP1 (Homo sapiens, UniProt Q9UPP1)
T7 construct: endogenous in cells; host or cells: DM93 cells (SILAC)
Outline: as §1

[8] = target: T8, O15318 (Homo sapiens, UniProt O15318)
T8 construct: endogenous in cells; host or cells: DM93
Outline: as §1

[9] = target: T9, P30086 (Homo sapiens, UniProt P30086)
T9 construct: endogenous in cells; host or cells: DM93 (SILAC)
Outline: as §1

[10] = target: T10, Q12874 (Homo sapiens, UniProt Q12874)
T10 construct: performing SuTEx compound screening directly in cells; endogenous in cells; host or cells: DM93 cells (SILAC)
Outline: as §1

[11] = target: T11, Q13330 (Homo sapiens, UniProt Q13330)
T11 construct: performing SuTEx compound screening directly in cells; endogenous in cells; host or cells: DM93 cells (SILAC), soluble fraction
Outline: as §1

[12] = target: T12, O75131 (Homo sapiens, UniProt O75131)
T12 construct: endogenous in cells; host or cells: DM93
Outline: as §1

[13] = target: T13, P14550 (Homo sapiens, UniProt P14550)
T13 construct: endogenous in cells; host or cells: DM93 cells (SILAC)
Outline: as §1

[14] = target: T14, P20839 (Homo sapiens, UniProt P20839)
T14 construct: endogenous in cells; host or cells: DM93 (SILAC)
Outline: as §1

[15] = target: T15, P61978 (Homo sapiens, UniProt P61978)
T15 construct: performing SuTEx compound screening directly in cells; endogenous in cells; host or cells: DM93 cells (SILAC)
Outline: as §1

[16] = target: T16, Q04323 (Homo sapiens, UniProt Q04323)
T16 construct: performing SuTEx compound screening directly in cells; endogenous in cells; host or cells: DM93 cells (SILAC)
Outline: as §1

[17] = target: T17, Q9H223 (Homo sapiens, UniProt Q9H223)
T17 construct: endogenous in cells; host or cells: DM93 cells (SILAC), treated live; soluble proteome analysed
Outline: as §1

[18] = target: T18, Q9P2B4 (Homo sapiens, UniProt Q9P2B4)
T18 construct: endogenous in cells; host or cells: DM93 cells (SILAC)
Outline: as §1

T8 sequence (O15318 whole entry): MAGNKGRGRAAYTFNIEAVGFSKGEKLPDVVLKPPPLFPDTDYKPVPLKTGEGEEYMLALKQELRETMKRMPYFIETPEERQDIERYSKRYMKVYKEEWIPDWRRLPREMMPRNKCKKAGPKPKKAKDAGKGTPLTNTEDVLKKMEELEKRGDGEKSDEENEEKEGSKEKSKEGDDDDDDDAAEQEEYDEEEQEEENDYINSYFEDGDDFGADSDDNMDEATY
T14 sequence (P20839 2-514 limits assumed): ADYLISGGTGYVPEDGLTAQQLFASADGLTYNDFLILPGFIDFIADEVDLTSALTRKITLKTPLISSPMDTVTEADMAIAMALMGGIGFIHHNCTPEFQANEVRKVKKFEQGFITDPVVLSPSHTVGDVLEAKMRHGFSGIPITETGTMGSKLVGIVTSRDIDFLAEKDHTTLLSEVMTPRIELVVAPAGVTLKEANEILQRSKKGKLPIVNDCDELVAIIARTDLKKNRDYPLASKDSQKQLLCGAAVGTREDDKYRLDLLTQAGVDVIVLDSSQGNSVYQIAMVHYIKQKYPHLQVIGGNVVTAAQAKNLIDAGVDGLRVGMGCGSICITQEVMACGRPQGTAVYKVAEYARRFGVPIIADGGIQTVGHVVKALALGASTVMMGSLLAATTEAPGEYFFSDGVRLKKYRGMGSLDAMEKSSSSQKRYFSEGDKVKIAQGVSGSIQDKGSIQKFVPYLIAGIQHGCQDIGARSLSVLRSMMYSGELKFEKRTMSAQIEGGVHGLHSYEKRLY
T9 sequence (P30086 whole entry): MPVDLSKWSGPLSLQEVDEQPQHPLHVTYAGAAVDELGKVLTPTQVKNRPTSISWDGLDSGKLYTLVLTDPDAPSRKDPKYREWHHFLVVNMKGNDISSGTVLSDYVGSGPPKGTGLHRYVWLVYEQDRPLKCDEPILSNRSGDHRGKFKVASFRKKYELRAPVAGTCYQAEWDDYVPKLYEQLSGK
T18 sequence (Q9P2B4 whole entry): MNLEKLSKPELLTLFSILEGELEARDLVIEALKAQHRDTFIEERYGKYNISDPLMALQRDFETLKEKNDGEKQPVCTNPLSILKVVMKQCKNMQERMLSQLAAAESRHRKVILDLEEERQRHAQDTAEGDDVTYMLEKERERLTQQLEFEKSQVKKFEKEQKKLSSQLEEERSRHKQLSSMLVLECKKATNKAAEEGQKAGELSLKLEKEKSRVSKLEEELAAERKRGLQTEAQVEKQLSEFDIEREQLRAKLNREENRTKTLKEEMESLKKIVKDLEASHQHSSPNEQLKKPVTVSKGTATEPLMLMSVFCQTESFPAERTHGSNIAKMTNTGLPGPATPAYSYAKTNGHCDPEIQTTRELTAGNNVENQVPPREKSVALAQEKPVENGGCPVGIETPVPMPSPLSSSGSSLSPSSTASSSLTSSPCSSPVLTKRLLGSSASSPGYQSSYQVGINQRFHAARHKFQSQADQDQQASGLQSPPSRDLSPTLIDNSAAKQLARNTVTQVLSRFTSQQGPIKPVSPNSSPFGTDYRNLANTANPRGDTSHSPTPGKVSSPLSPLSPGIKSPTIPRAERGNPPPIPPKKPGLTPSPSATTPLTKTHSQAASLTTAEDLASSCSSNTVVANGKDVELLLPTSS
T11 sequence (Q13330 whole entry): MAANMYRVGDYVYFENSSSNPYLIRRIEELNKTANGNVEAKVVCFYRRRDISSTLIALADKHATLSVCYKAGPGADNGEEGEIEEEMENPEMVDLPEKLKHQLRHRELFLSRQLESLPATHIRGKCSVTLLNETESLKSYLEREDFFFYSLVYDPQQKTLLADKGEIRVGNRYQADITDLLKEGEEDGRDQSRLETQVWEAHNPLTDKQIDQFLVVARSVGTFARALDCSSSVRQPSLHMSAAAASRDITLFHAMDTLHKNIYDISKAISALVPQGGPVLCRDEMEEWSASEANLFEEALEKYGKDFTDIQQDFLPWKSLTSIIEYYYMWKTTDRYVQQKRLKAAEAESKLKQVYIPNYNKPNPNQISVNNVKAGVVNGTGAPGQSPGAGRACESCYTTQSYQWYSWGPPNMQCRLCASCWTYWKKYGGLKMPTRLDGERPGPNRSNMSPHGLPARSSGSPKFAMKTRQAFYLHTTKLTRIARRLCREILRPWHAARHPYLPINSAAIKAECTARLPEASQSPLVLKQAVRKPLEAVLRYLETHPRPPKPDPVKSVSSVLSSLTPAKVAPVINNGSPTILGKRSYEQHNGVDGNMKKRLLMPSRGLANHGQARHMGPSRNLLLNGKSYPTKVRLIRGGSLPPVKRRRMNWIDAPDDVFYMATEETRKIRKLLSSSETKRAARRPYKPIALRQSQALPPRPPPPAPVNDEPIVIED
T2 sequence (P68104 whole entry): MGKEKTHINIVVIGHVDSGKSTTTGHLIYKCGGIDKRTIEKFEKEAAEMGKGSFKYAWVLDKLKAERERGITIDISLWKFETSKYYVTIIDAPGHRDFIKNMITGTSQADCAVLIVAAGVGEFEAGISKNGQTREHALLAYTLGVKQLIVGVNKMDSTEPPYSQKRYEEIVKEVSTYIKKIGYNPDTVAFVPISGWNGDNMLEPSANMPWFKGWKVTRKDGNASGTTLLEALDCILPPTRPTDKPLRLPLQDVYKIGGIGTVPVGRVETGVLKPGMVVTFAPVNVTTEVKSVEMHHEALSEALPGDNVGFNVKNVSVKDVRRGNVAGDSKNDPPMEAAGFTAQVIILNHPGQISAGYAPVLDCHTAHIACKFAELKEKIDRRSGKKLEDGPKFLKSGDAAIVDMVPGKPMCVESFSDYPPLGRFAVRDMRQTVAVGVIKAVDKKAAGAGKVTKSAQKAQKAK
T13 sequence (P14550 whole entry): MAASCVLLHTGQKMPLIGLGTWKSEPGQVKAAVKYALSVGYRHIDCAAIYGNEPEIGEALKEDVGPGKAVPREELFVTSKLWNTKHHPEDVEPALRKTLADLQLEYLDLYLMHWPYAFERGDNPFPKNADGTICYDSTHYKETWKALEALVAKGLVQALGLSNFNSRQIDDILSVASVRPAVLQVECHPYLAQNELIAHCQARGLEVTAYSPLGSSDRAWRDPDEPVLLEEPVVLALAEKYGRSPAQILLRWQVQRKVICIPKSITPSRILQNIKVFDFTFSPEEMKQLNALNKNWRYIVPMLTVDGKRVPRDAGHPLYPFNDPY
T5 sequence (P61326 whole entry): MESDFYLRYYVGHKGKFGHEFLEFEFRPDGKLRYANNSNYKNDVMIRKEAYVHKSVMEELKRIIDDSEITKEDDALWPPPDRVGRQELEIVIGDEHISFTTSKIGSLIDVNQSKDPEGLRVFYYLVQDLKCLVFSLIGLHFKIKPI
T1 sequence (P09874 whole entry): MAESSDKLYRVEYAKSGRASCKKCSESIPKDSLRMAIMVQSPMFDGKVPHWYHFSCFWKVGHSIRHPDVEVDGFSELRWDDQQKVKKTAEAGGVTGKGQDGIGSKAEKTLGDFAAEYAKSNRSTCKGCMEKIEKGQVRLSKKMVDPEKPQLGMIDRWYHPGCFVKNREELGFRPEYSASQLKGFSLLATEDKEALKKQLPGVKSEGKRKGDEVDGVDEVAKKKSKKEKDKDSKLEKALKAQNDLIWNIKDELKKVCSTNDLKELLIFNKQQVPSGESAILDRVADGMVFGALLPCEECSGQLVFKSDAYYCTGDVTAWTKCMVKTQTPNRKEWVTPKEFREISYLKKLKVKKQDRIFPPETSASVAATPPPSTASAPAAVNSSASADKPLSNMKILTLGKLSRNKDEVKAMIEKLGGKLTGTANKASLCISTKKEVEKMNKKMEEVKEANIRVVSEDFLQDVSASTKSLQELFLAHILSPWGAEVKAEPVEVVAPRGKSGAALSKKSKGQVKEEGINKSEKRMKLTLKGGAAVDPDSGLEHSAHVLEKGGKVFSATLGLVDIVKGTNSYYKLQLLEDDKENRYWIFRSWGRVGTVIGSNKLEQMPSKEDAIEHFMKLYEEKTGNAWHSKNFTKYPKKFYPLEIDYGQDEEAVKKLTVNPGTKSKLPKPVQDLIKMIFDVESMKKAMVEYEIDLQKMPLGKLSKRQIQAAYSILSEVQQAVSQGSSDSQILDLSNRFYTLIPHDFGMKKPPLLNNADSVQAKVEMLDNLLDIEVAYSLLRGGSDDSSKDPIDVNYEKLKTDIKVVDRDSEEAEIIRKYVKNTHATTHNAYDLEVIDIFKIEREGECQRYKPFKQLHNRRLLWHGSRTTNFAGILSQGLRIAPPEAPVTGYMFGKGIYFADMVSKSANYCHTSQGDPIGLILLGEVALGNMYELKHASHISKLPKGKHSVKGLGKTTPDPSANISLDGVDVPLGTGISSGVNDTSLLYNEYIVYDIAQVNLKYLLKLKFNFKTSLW
T17 sequence (Q9H223 whole entry): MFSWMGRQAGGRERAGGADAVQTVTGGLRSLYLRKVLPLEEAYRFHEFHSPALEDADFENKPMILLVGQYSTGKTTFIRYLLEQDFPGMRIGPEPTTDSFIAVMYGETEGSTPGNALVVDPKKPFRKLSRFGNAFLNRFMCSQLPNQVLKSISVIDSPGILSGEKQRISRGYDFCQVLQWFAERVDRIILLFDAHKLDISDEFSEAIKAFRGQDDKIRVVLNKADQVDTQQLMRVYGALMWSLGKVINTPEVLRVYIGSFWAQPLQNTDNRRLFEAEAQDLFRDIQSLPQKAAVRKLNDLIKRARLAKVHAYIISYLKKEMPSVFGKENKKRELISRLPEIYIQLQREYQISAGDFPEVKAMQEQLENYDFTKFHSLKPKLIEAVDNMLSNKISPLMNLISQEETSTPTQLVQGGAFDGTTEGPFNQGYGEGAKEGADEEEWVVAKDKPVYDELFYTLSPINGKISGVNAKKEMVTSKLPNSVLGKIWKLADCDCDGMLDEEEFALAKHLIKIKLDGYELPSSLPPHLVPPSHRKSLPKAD

## O=C(NC1CC1)c1ccc(S(=O)(=O)n2cncn2)cc1 [HHS-0101, 4-((1H-1,2,4-triazol-1-yl)sulfonyl)-N-cyclopropylbenzamide]
[1]
  liganded tyrosine site 645: HHS0101.Y (tyrosine sites that showed >80% reductions (SR >5) in probe labeling in cells treated with compounds (liganded sites))
[2]
  liganded tyrosine site 183: HHS0101.Y (tyrosine sites that showed >80% reductions (SR >5) in probe labeling in cells treated with compounds (liganded sites))
[3]
  liganded tyrosine site 50: HHS0101.Y (tyrosine sites that showed >80% reductions (SR >5) in probe labeling in cells treated with compounds (liganded sites))

## O=C(NCC1CC1)c1ccc(S(=O)(=O)n2cncn2)cc1 [HHS-0201, 4-((1H-1,2,4-triazol-1-yl)sulfonyl)-N-(cyclopropylmethyl)benzamide]
[4]
  liganded tyrosine site 578: HHS0201.Y|HHS0301.Y|HHS0401.Y|HHS0701.Y (tyrosine sites that showed >80% reductions (SR >5) in probe labeling in cells treated with compounds (liganded sites))
[5]
  liganded tyrosine site 34: HHS0201.Y (tyrosine sites that showed >80% reductions (SR >5) in probe labeling in cells treated with compounds (liganded sites))
[6]
  liganded tyrosine site 1012: HHS0201.Y (tyrosine sites that showed >80% reductions (SR >5) in probe labeling in cells treated with compounds (liganded sites))
[7]
  liganded tyrosine site 383: HHS0201.Y (tyrosine sites that showed >80% reductions (SR >5) in probe labeling in cells treated with compounds (liganded sites))

## O=C(NC1CCCCC1)c1ccc(S(=O)(=O)n2cncn2)cc1 [HHS-0301, 4-((1H-1,2,4-triazol-1-yl)sulfonyl)-N-cyclohexylbenzamide]
[8]
  liganded tyrosine site 43: HHS0301.Y|HHS0401.Y (tyrosine sites that showed >80% reductions (SR >5) in probe labeling in cells treated with compounds (liganded sites))
  liganded tyrosine site 56: HHS0301.Y (tyrosine sites that showed >80% reductions (SR >5) in probe labeling in cells treated with compounds (liganded sites))
[9]
  liganded tyrosine site 106: HHS0301.Y (tyrosine sites that showed >80% reductions (SR >5) in probe labeling in cells treated with compounds (liganded sites))
[10]
  liganded tyrosine site 139: HHS0301.Y (tyrosine sites that showed >80% reductions (SR >5) in probe labeling in cells treated with compounds (liganded sites))
[11]
  liganded tyrosine site 22: HHS0301.Y (tyrosine sites that showed >80% reductions (SR >5) in probe labeling in cells treated with compounds (liganded sites))

## O=C(NCc1ccccc1)c1ccc(S(=O)(=O)n2cncn2)cc1 [HHS-0401, 4-((1H-1,2,4-triazol-1-yl)sulfonyl)-N-benzylbenzamide]
[12]
  liganded tyrosine site 203: HHS0401.Y (tyrosine sites that showed >80% reductions (SR >5) in probe labeling in cells treated with compounds (liganded sites))
[13]
  liganded tyrosine site 135: HHS0401.Y (tyrosine sites that showed >80% reductions (SR >5) in probe labeling in cells treated with compounds (liganded sites))
[14]
  liganded tyrosine site 233: HHS0401.Y (tyrosine sites that showed >80% reductions (SR >5) in probe labeling in cells treated with compounds (liganded sites))

## O=C(c1ccc(S(=O)(=O)n2cncn2)cc1)N1CCC(c2ccccc2)CC1 [HHS-0701, (4-((1H-1,2,4-triazol-1-yl)sulfonyl)phenyl)(4-phenylpiperidin-1-yl)methanone]
[15]
  liganded tyrosine site 138: HHS0701.Y (tyrosine sites that showed >80% reductions (SR >5) in probe labeling in cells treated with compounds (liganded sites))
[16]
  liganded tyrosine site 179: HHS0701.Y (tyrosine sites that showed >80% reductions (SR >5) in probe labeling in cells treated with compounds (liganded sites))
[17]
  liganded tyrosine site 70: HHS0701.Y (tyrosine sites that showed >80% reductions (SR >5) in probe labeling in cells treated with compounds (liganded sites))
[18]
  liganded tyrosine site 343: HHS0701.Y (tyrosine sites that showed >80% reductions (SR >5) in probe labeling in cells treated with compounds (liganded sites))
